Data on one compound can be found in patent US20250241971A1 (priority 2022, published 2025).

In series [1] the test system is broiler chickens. The settings on record: in vivo.
Series [2] deals with il8 and ifnγ genes. The settings on record: in vivo.
In series [3] the test system is Poultry. Particulars: in vivo; cited from earlier work.
In series [4] the test system is Ruminants. Particulars: in feed; cited from earlier work.
Series [5] has as its system broiler chickens. Particulars: in vivo. This is another data set of the same source.
In series [6] the test system is pig jejunum explants.

In the case of `CC1=C[C@H]2O[C@@H]3[C@H](O)C[C@](C)([C@@]2(CO)[C@H](O)C1=O)[C@]31CO1` [DON, Deoxynivalenol], in series [1], the “lesions in the liver” value is given as “induces a strong increase in lesions in the liver” and the “macroscopic appearance of the liver” value is “appears paler, slightly yellower; a hemorrhagic lesion is clearly visible”. Moreover, in series [2], the “il8 mRNA expression in jejunum” value is given as “strong increase” and the “interferon gamma (ifnγ) mRNA expression in jejunum” value is “strong increase”. Also, in series [3], the “concentration from which first zootechnical effects are observed” value is recorded as ≥ 5 mg of DON per kilogram of feed. Besides, the “feed concentration up to which little sensitivity appears” value in series [4] is on record as “up to 12 mg/kg of feed”. In addition, the “size (height) of intestinal villi of the jejunum” value in series [5] is on record as “induces a reduction in the size of the intestinal villi of the jejunum”. Besides, in series [6], the “number of lesions on the tissue” value is reported as “increases the number of lesions on the tissue”. Also, the “decrease in villus length” value in series [6] (pig) is listed as “approximately 35%”.
